{
  "source": "patent US20160324856A1",
  "about": "“USE OF SGC STIMULATORS FOR THE TREATMENT OF NEUROMUSCULAR DISORDERS” (IRONWOOD PHARMACEUTICALS, INC., priority 2014, published 2016)",
  "origin": "cited, not measured here",
  "key": {"[1]": {"tested_on": "dystrophin-deficient zebrafish"}},
  "data": [
    {"smiles": "CCCc1nn(C)c2c(=O)[nH]c(-c3cc(S(=O)(=O)N4CCN(C)CC4)ccc3OCC)nc12", "note": "[sildenafil]", "values": [
      {"measurement": "cardiac dynamics", "setting": "mdx mouse; mdx mice", "result": "improve cardiac dynamics"},
      {"measurement": "muscle ischemia, injury and fatigue", "setting": "mdx mouse; mdx mouse, after a brief bout of exercise", "result": "alleviate muscle ischemia, as well as injury and fatigue"},
      {"measurement": "dystrophic skeletal muscle and survival", "setting": "[1]", "result": "rescue dystrophic skeletal muscle and prolong survival"}
    ]}
  ]
}
